Experimental data taken from US9708251B2, “Unsaturated fatty alcohol alkoxylates from natural oil metathesis” (Stepan Company, priority 2012, dated 2017).
Each block holds one compound with its values, some of them ahead of it.

What was measured:
[1] = Emulsion stability testing of nonionic emulsifiers, aromatic solvent series; type: physicochemical; design: key to 24 h separation, appearance / 1 h separation, appearance / 1 h separation, amount: C = creamy; CO = creamy oil; O = oil; GC = gritty cream; NS = no separation; OC = oily cream; key to Spon. (spontaneity): G = good; F = fair; P = poor
[2] = Fabric cleaning: compaction (surfactant blends); type: physicochemical
Method: The sample is formulated into surfactant blends having high actives content. Two experimental derivatives, A12-13 and A12-21, are evaluated.
In a first experiment, a three-component surfactant blend is prepared. This blend comprises the experimental sample (30 wt. %), a linear alkylbenzene sulfonate (15 wt. %), and an alkyl ether sulfate (15 wt. %). The appearance and viscosity of the blend are compared with those of similar three-component blends in which a standard alcohol ethoxylate replaces the experimental sample.
In a second experiment, a two-component surfactant blend is prepared in which the experimental sample and a linear alkylbenzene sulfonate are combined at a 1:1 actives ratio, beginning with a high actives blend having a cloudy appearance. Water is gradually added and mixed with the surfactant blend at room temperature. […]

[3] = Emulsion stability testing of nonionic emulsifiers, Hallcomid solvent series; type: physicochemical; design: key to 24 h separation, appearance / 1 h separation, appearance / 1 h separation, amount: C = creamy; CO = creamy oil; O = oil; GC = gritty cream; NS = no separation; OC = oily cream; key to Spon. (spontaneity): G = good; F = fair; P = poor
[4] = Surfactant phase behavior study (cross-polarized microscopy); type: physicochemical; details: room temperature, in deionized water
Outline: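 Saturated analogs serve as comparators. Water dilutions of the product, stepped at 2-4% near transitions, equilibrated between slide and cover glass and assigned phase by cross-polarized microscopy texture at 100-400×, 20-22° C. Boundaries lie within ±5% actives; some samples checked by viscosity at 25° C.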

[5] = Emulsion stability testing of nonionic emulsifiers, Hallcomid solvent series; type: physicochemical; design: key: C = creamy; CO = creamy oil; O = oil; GC = gritty cream; NS = no separation; OC = oily cream; Tr. = trace; details: Bifenthrin 240 g/L in Hallcomid M-8-10, 34 ppm water
Method: Nonionic samples contain a low amount of water (<1%) and are prepared as emulsifiable concentrates with three pesticides using two different solvent systems. In the aromatic solvent series, the nonionic sample replaces Toximul® 8240 (castor oil ethoxylate, 36 POE, Stepan), and in the Hallcomid™ (N,N-dimethylcaprylamide/N,N-dimethylcapramide, Stepan) solvent series, the nonionic sample replaces Ninex® MT-630F.
Hallcomid Solvent Series.
Sample preparation: The surfactants are combined and stirred until homogeneous, with the nonionic sample melted if needed prior to combination. Controls 1-3 are made by using Ninex MT-630F in the amounts indicated instead of the nonionic sample.
Emulsion Stability Testing
A Mohr pipette is used to feed pesticide/surfactant concentrates to each cylinder.

[6] = as above; type: physicochemical; design: key: C = creamy; CO = creamy oil; O = oil; GC = gritty cream; NS = no separation; OC = oily cream; details: Bifenthrin 240 g/L in Hallcomid M-8-10, 34 ppm water
[7] = Performance as a latex paint additive (formulation, KU, rating); details: initial KU of 90; additive 1% active based on latex solids
Method: Titanium dioxide slurry (Dupont Ti-Pure® R746) is charged to a container, followed by deionized water and propylene glycol, and the contents are mixed (500 rpm). […] The pH is adjusted to 9.0 using ammonium hydroxide solution. The batch is mixed for 30 min. and then allowed to stand for at least 2 h. […] Viscosity is adjusted to an initial KU of 90 with more thickener.

[8] = 2,4-D ester 480 g/L in Exxsol D-110, 34 ppm water
[9] = 2,4-D ester 480 g/L in Exxsol D-110, 1000 ppm water
[10] = Bifenthrin 240 g/L in Aromatic 100, 34 ppm water
[11] = Bifenthrin 240 g/L in Aromatic 100, 1000 ppm water
[12] = Tebuconazole 360 g/L in N-methyl-2-pyrrolidone, 34 ppm water
[13] = Tebuconazole 360 g/L in N-methyl-2-pyrrolidone, 1000 ppm water
[14] = three-component blend: sample 30 wt. %, linear alkylbenzene sulfonate 15 wt. %, alkyl ether sulfate 15 wt. %
[15] = 2,4-D diester 480 g/L in Hallcomid M-8-10, 34 ppm water
[16] = 2,4-D diester 480 g/L in Hallcomid M-8-10, 1000 ppm water
[17] = Bifenthrin 240 g/L in Hallcomid M-8-10, 34 ppm water
[18] = Bifenthrin 240 g/L in Hallcomid M-8-10, 1000 ppm water
[19] = Tebuconazole 360 g/L in Hallcomid M-8-10, 34 ppm water
[20] = Tebuconazole 360 g/L in Hallcomid M-8-10, 1000 ppm water

Structure (SMILES): CCC=CCCCCCCCCOCCOCCOCCOCCOCCOCCOCCO (mixture of isomers) [A12-13]
1 h separation, amount [1, 8]: 3.5 mL
1 h separation, appearance [1, 8]: C
24 h separation, amount [1, 8]: 5 mL
24 h separation, appearance [1, 8]: C
Spon. (spontaneity) [1, 8]: F
1 h separation, amount [1, 9]: 5.2 mL
1 h separation, appearance [1, 9]: CO
24 h separation, amount [1, 9]: 5 mL
24 h separation, appearance [1, 9]: CO
Spon. (spontaneity) [1, 9]: F
1 h separation, amount [1, 10]: 1 mL
1 h separation, appearance [1, 10]: C
24 h separation, amount [1, 10]: 4.9 mL
24 h separation, appearance [1, 10]: C
Spon. (spontaneity) [1, 10]: F
1 h separation, amount [1, 11]: Tr.
1 h separation, appearance [1, 11]: C
24 h separation, amount [1, 11]: 0.5 CO, 1 C
Spon. (spontaneity) [1, 11]: G
1 h separation, amount [1, 12]: 1.8 mL
1 h separation, appearance [1, 12]: C
24 h separation, amount [1, 12]: 3 GC, 4 CO
Spon. (spontaneity) [1, 12]: P
1 h separation, amount [1, 13]: 2.4 mL
1 h separation, appearance [1, 13]: C
24 h separation, amount [1, 13]: 3.5 mL
24 h separation, appearance [1, 13]: GC
Spon. (spontaneity) [1, 13]: P
Appearance, 25° C. [2, 14]: cloudy, flowable gel
Viscosity [2, 14]: 5400 cPs
% Actives at which blend is clear and homogeneous at 25° C. ([2]; two-component blend with linear alkylbenzene sulfonate, 1:1 actives ratio): 41 % Actives
1 h separation, amount [3, 15]: 4.4 mL
1 h separation, appearance [3, 15]: C
24 h separation, amount [3, 15]: 9.6 mL
24 h separation, appearance [3, 15]: C
Spon. (spontaneity) [3, 15]: P
1 h separation, amount [3, 16]: 5.2 mL
1 h separation, appearance [3, 16]: C
24 h separation, amount [3, 16]: 9 mL
24 h separation, appearance [3, 16]: C
Spon. (spontaneity) [3, 16]: F
1 h separation, amount [3, 17]: NS
24 h separation, appearance [3, 17]: C
Spon. (spontaneity) [3, 17]: G
1 h separation, amount [3, 18]: 5.1 mL
1 h separation, appearance [3, 18]: CO
24 h separation, amount [3, 18]: 3 O, 2 CO
Spon. (spontaneity) [3, 18]: F
1 h separation, amount [3, 19]: 1.3 mL
1 h separation, appearance [3, 19]: C
24 h separation, amount [3, 19]: 4.1 mL
24 h separation, appearance [3, 19]: C
Spon. (spontaneity) [3, 19]: F
1 h separation, amount [3, 20]: 1.8 mL
1 h separation, appearance [3, 20]: C
24 h separation, amount [3, 20]: 4.3 mL
24 h separation, appearance [3, 20]: C
Spon. (spontaneity) [3, 20]: G
Hexagonal phase region [4]: 35-57 % Actives Level
24 h separation, amount [5]: Tr.

24 h separation, amount [6]: NS
1 h separation, amount [1, 8]: 3.9 mL
1 h separation, appearance [1, 8]: C
24 h separation, amount [1, 8]: 5.3 mL
24 h separation, appearance [1, 8]: C
Spon. (spontaneity) [1, 8]: P
1 h separation, amount [1, 9]: 2.9 mL
1 h separation, appearance [1, 9]: C
24 h separation, amount [1, 9]: 4 mL
24 h separation, appearance [1, 9]: C
Spon. (spontaneity) [1, 9]: P
1 h separation, amount [1, 10]: 5.9 mL
1 h separation, appearance [1, 10]: C
24 h separation, amount [1, 10]: 6 mL
24 h separation, appearance [1, 10]: C
Spon. (spontaneity) [1, 10]: F
1 h separation, amount [1, 11]: 5.5 mL
1 h separation, appearance [1, 11]: C
24 h separation, amount [1, 11]: 5 mL
24 h separation, appearance [1, 11]: C
Spon. (spontaneity) [1, 11]: P
1 h separation, amount [1, 12]: 1.8 mL
1 h separation, appearance [1, 12]: CO
24 h separation, amount [1, 12]: 3 mL
24 h separation, appearance [1, 12]: GC
Spon. (spontaneity) [1, 12]: F
1 h separation, amount [1, 13]: 1.9 mL
1 h separation, appearance [1, 13]: CO
24 h separation, amount [1, 13]: 3 mL
24 h separation, appearance [1, 13]: GC
Spon. (spontaneity) [1, 13]: F
1 h separation, amount [3, 15]: 4.5 mL
1 h separation, appearance [3, 15]: C
24 h separation, amount [3, 15]: 8.5 mL
24 h separation, appearance [3, 15]: C
Spon. (spontaneity) [3, 15]: P
1 h separation, amount [3, 16]: 4 mL
1 h separation, appearance [3, 16]: C
24 h separation, amount [3, 16]: 7 mL
24 h separation, appearance [3, 16]: C
Spon. (spontaneity) [3, 16]: P
1 h separation, amount [3, 17]: NS
Spon. (spontaneity) [3, 17]: G
1 h separation, amount [3, 18]: 6.2 mL
1 h separation, appearance [3, 18]: CO
24 h separation, amount [3, 18]: 2 O, 3.6 CO
Spon. (spontaneity) [3, 18]: F
1 h separation, amount [3, 19]: 1.5 mL
1 h separation, appearance [3, 19]: C
24 h separation, amount [3, 19]: 3 mL
24 h separation, appearance [3, 19]: C
Spon. (spontaneity) [3, 19]: F
1 h separation, amount [3, 20]: 1.5 mL
1 h separation, appearance [3, 20]: C
24 h separation, amount [3, 20]: 3 mL
24 h separation, appearance [3, 20]: C
Spon. (spontaneity) [3, 20]: F
final KU of paint after 24 h [7]: 93-100 KU
Cubic phase region [4]: 30-57 % Actives Level
Hexagonal phase region [4]: 60-70 % Actives Level
Paste phase region [4]: 93-100 % Actives Level
Structure (SMILES): CCC=CCCCCCCCCOCCOCCOCCOCCOCCOCCOCCOCCOCCOCCOCCOCCOCCOCCOCCO (mixture of isomers) [A12-16]
